Assay results reported in patent US12064426B2, “Selective inhibitors of ROCK1 and ROCK2 protein kinases and uses thereof” (GENOSCO Inc., priority 2021, dated 2024).

Tests used:
[1] = target: T1, Recombinant ROCK1 (amino acids 1-477) (Homo sapiens, UniProt Q13464); assay: ROCK inhibition assay, LANCE Ultra TR-FRET kinase assay (ROCK1); assay type: biochemical; conditions: 1 μM ATP, 50 nM ULight-CREBtide substrate
T1 construct: Recombinant ROCK1 (amino acids 1-477); by word order, ROCK1 from Carna Biosciences
Procedure: (§1) Kinase IC50 was determined through an in vitro assay based on LANCE Ultra TR-FRET (Time-Resolved Fluorescence Resonance Energy Transfer) homogeneous technologies method (Perkin Elmer). Recombinant ROCK1 (amino acids 1-477) and ROCK2 (amino acids 5-554) proteins were purchased from Carna Biosciences and SignalChem. Compound activities were measured by Envision and IC50s were calculated. The assays were performed in white LUMITRAC™ 200 96 well half-area microplates from Greiner Bio-One. The kinase reaction buffer consisted of 50 mM HEPES pH 7.5, 1 mM EGTA, 10 mM MgCl2, 2 mM DTT and 0.01% Tween-20. Kinases were incubated with 50 nM (ULight-CREBtide) substrate in the presence of 1 (ROCK1) or 4 (ROCK2) μM ATP. The kinase reaction was carried out for 1 hour before addition of a stopping buffer to a final of 10 mM EDTA and 0.6 nM of LANCE Ultra Europium anti-phospho-CREB (Ser133) antibody (PerkinElmer TRF0200) in LANCE detection buffer. All assay incubations were performed at room temperature, and the microplates were sealed with polyester film during that time. The reaction was incubated for 1 hour, and the signal was read in Envision in TR-FRET mode (excitation at 320 nm and emission at 615/665 nm).
(§2) As used herein, a way to describe potency of inhibitory activity (nM) is a value of inhibitory activity at 50% (IC50).

[2] = target: T2, Recombinant ROCK2 (amino acids 5-554) (Homo sapiens, UniProt O75116); assay: ROCK inhibition assay, LANCE Ultra TR-FRET kinase assay (ROCK2); assay type: biochemical; conditions: 4 μM ATP, 50 nM ULight-CREBtide substrate
T2 construct: ROCK2 (amino acids 5-554); by word order, ROCK2 from SignalChem
Procedure: as §1, §2

T1 sequence (Q13464 1-477): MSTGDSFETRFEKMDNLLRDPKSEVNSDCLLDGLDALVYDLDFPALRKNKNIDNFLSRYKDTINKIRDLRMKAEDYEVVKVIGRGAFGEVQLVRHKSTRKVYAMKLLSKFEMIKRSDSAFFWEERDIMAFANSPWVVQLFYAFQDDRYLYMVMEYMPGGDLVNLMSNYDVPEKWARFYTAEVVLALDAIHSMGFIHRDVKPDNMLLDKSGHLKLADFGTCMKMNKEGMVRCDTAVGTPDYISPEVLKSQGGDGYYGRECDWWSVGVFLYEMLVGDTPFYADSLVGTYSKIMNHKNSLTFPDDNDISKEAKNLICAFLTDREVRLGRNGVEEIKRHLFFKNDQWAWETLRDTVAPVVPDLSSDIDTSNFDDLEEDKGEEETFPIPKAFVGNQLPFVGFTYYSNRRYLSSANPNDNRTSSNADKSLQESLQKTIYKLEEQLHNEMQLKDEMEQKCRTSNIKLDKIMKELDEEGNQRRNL
T2 sequence (O75116 5-554): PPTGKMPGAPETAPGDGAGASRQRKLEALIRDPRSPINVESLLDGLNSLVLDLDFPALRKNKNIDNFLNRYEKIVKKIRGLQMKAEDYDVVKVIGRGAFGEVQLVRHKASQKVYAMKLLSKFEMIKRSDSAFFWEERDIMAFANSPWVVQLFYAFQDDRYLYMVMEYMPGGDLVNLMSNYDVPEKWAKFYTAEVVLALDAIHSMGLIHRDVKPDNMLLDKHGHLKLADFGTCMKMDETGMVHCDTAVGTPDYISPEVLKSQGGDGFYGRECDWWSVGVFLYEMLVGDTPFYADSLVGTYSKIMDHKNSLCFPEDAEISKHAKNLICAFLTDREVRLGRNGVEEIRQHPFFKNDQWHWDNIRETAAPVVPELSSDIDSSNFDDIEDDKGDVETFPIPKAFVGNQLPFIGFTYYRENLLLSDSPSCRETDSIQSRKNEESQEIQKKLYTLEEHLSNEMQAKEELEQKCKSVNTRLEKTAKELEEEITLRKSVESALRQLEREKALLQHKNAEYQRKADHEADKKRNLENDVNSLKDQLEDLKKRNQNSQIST

IC50 [1]	IC50 [2]	SMILES
101 to 500 nM	10 to 100 nM	Cn1nccc1-c1ccc2c(=O)n(Cc3cccc(C(=O)NC4CCOCC4)c3)ccc2c1 [Compound 104]
< 10 nM	< 10 nM	Cn1nccc1-c1ccc2c(=O)n(Cc3cccc(C(=O)NC4CCNCC4)c3)ccc2c1 [Compound 105]
< 10 nM	< 10 nM	CN1CCC(NC(=O)c2cccc(Cn3ccc4cc(-c5ccnn5C)ccc4c3=O)c2)CC1 [Compound 106]
101 to 500 nM	10 to 100 nM	Cn1nccc1-c1ccc2c(=O)n(Cc3cccc(C(=O)NC4CCN(C5COC5)CC4)c3)ccc2c1 [Compound 109]
101 to 500 nM	< 10 nM	Cn1nccc1-c1ccc2c(=O)n(Cc3cccc(C(=O)NC4COC4)c3)ccc2c1 [Compound 110]
101 to 500 nM	< 10 nM	Cn1nccc1-c1ccc2c(=O)n(Cc3cccc(C(=O)NCC4COC4)c3)ccc2c1 [Compound 111]
101 to 500 nM	10 to 100 nM	Cn1nccc1-c1ccc2c(=O)n(Cc3cccc(C(=O)NCC4CC(O)C4)c3)ccc2c1 (centres unmarked) [Compound 112]
11 to 100 nM	< 10 nM	CN1CC(CNC(=O)c2cccc(Cn3ccc4cc(-c5ccnn5C)ccc4c3=O)c2)C1 [Compound 113]
11 to 100 nM	< 10 nM	Cn1nccc1-c1ccc2c(=O)n(Cc3cccc(C(=O)NCc4ccc(F)nc4)c3)ccc2c1 [Compound 114]
101 to 500 nM	10 to 100 nM	Cn1nccc1-c1ccc2c(=O)n(Cc3cccc(C(=O)N[C@H]4CC[C@H](O)CC4)c3)ccc2c1 [Compound 115]
101 to 500 nM	10 to 100 nM	Cn1nccc1-c1ccc2c(=O)n(Cc3cccc(C(=O)N[C@H]4CC[C@@H](O)CC4)c3)ccc2c1 [Compound 116]
101 to 500 nM	10 to 100 nM	Cn1nccc1-c1ccc2c(=O)n(Cc3cccc(C(=O)NCc4ccnc(F)c4)c3)ccc2c1 [Compound 117]
101 to 500 nM	10 to 100 nM	CC(C)N1CCC(NC(=O)c2cccc(Cn3ccc4cc(-c5ccnn5C)ccc4c3=O)c2)CC1 [Compound 118]

Second part, the molecule before the results:

SMILES	IC50 [1]	IC50 [2]
Cc1nocc1-c1ccc2c(=O)n(Cc3cccc(C(=O)Nc4ccc5c(c4)COCC5)c3)ccc2c1 [Compound 92]	11 to 100 nM	< 10 nM
Cc1nocc1-c1ccc2c(=O)n(Cc3cccc(C(=O)Nc4nc5c(s4)CCNC5)c3)ccc2c1 [Compound 93]	< 10 nM	< 10 nM
Cc1nocc1-c1ccc2c(=O)n(Cc3cccc(C(=O)Nc4nc5c(s4)CCN(C)C5)c3)ccc2c1 [Compound 94]	< 10 nM	< 10 nM
Cc1nocc1-c1ccc2c(=O)n(Cc3cccc(C(=O)Nc4nc5c(s4)CCN(C(C)C)C5)c3)ccc2c1 [Compound 95]	11 to 100 nM	< 10 nM
Cc1nocc1-c1ccc2c(=O)n(Cc3cccc(C(=O)Nc4ccc5c(c4)CCNC5)c3)ccc2c1 [Compound 96]	< 10 nM	< 10 nM
Cc1nocc1-c1ccc2c(=O)n(Cc3cccc(C(=O)Nc4ccc5c(c4)CCN(C)C5)c3)ccc2c1 [Compound 97]	< 10 nM	< 10 nM
Cc1nocc1-c1ccc2c(=O)n(Cc3cccc(C(=O)Nc4ccc5c(c4)CCN(C(C)C)C5)c3)ccc2c1 [Compound 98]	< 10 nM	< 10 nM
Cc1nocc1-c1ccc2c(=O)n(Cc3cccc(C(=O)Nc4ccc5c(c4)CCN(C4CC4)C5)c3)ccc2c1 [Compound 99]	< 10 nM	< 10 nM
Cc1nocc1-c1ccc2c(=O)n(Cc3cccc(C(=O)Nc4ccc5c(c4)CNCC5)c3)ccc2c1 [Compound 100]	< 10 nM	< 10 nM
Cc1nocc1-c1ccc2c(=O)n(Cc3cccc(C(=O)Nc4ccc5c(c4)CN(C)CC5)c3)ccc2c1 [Compound 101]	< 10 nM	< 10 nM
Cc1nocc1-c1ccc2c(=O)n(Cc3cccc(C(=O)NCCO)c3)ccc2c1 [Compound 102]	> 501 nM	10 to 100 nM
Cn1nccc1-c1ccc2c(=O)n(Cc3cccc(C(=O)NCC(F)(F)F)c3)ccc2c1 [Compound 103]	101 to 500 nM	10 to 100 nM
